# According to the supplement of paper PMC10307832:
# Legend:
# Experiment in all cases: relative viability (nuclei count vs DMSO), 5 days (fraction); higher = more cells survive
# HARA = test system: HARA
# Procedure, shortened: (§1)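 Relative viability was taken as the ratio of nuclei in treated wells to nuclei in vehicle wells. Lung cancer cell lines in 1536-well plates received compounds by pin tool one day after seeding, either one drug alone or a fixed anchor-drug dose plus five library-drug doses (not always all listed) in √10 steps. Nuclei were counted on 4× images after 5 days of treatment, and values are medians of duplicate plates.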
# HCC-78 = test system: HCC-78
# Procedure, shortened: as §1
# NCI-H520 = test system: NCI-H520
# Procedure, shortened: as §1
# UMC-11 = test system: UMC-11
# Procedure, shortened: as §1
# PC-3 [JPC-3] = test system: PC-3 [JPC-3]
# Procedure, shortened: as §1
# NCI-H838 = test system: NCI-H838
# Procedure, shortened: as §1
# NCI-H1793 = test system: NCI-H1793
# Procedure, shortened: as §1
# COR-L23 = test system: COR-L23
# Procedure, shortened: as §1
# NCI-H2405 = test system: NCI-H2405
# Procedure, shortened: as §1
# NCI-H1651 = test system: NCI-H1651
# Procedure, shortened: as §1
# LXF-289 = test system: LXF-289
# Procedure, shortened: as §1
# LCLC-97TM1 = test system: LCLC-97TM1
# Procedure, shortened: as §1
# NCI-H1650 = test system: NCI-H1650
# Procedure, shortened: as §1
# NCI-H2347 = test system: NCI-H2347
# Procedure, shortened: as §1
# LK-2 = test system: LK-2
# Procedure, shortened: as §1
# RERF-LC-KJ = test system: RERF-LC-KJ
# Procedure, shortened: as §1
# LOU-NH91 = test system: LOU-NH91
# Procedure, shortened: as §1
# NCI-H647 = test system: NCI-H647
# Procedure, shortened: as §1
# NCI-H23 = test system: NCI-H23
# Procedure, shortened: as §1
# A-427 = test system: A-427
# Procedure, shortened: as §1
# 201T = test system: 201T
# Procedure, shortened: as §1
smiles,measurement,setting,value
CCNC(=O)c1noc(-c2cc(C(C)C)c(O)cc2O)c1-c1ccc(CN2CCOCC2)cc1 [Luminespib] + CC1(C)CCC(c2ccc(Cl)cc2)=C(CN2CCN(c3ccc(C(=O)NS(=O)(=O)c4ccc(N[C@H](CCN5CCOCC5)CSc5ccccc5)c(S(=O)(=O)C(F)(F)F)c4)cc3)CC2)C1 [Navitoclax] (partner 0.5 µM),relative viability,HARA; first compound 0.002 µM,1.21
same,relative viability,HARA; first compound 0.006325 µM,1.14
same,relative viability,HARA; first compound 0.02 µM,1.15
same,relative viability,HARA; first compound 0.06325 µM,1.08
same,relative viability,HARA; first compound 0.2 µM,0.553
same,relative viability,HCC-78; first compound 0.002 µM,0.874
same,relative viability,HCC-78; first compound 0.06325 µM,1.12
same,relative viability,HCC-78; first compound 0.2 µM,0.21
same,relative viability,NCI-H520; first compound 0.002 µM,1.01
same,relative viability,NCI-H520; first compound 0.006325 µM,1
same,relative viability,NCI-H520; first compound 0.02 µM,1.1
same,relative viability,NCI-H520; first compound 0.06325 µM,0.177
same,relative viability,NCI-H520; first compound 0.2 µM,0.167
same,relative viability,UMC-11; first compound 0.002 µM,0.305
same,relative viability,UMC-11; first compound 0.006325 µM,0.349
same,relative viability,UMC-11; first compound 0.02 µM,0.224
same,relative viability,UMC-11; first compound 0.06325 µM,0.148
same,relative viability,UMC-11; first compound 0.2 µM,0.108
same,relative viability,PC-3 [JPC-3]; first compound 0.002 µM,0.818
same,relative viability,PC-3 [JPC-3]; first compound 0.006325 µM,0.81
same,relative viability,PC-3 [JPC-3]; first compound 0.02 µM,0.648
same,relative viability,PC-3 [JPC-3]; first compound 0.06325 µM,0.847
same,relative viability,PC-3 [JPC-3]; first compound 0.2 µM,0.739
same,relative viability,NCI-H838; first compound 0.002 µM,1.3
same,relative viability,NCI-H838; first compound 0.006325 µM,1.12
same,relative viability,NCI-H838; first compound 0.02 µM,1.07
same,relative viability,NCI-H838; first compound 0.06325 µM,0.18
same,relative viability,NCI-H838; first compound 0.2 µM,0.193
same,relative viability,NCI-H1793; first compound 0.002 µM,0.517
same,relative viability,NCI-H1793; first compound 0.006325 µM,0.374
same,relative viability,NCI-H1793; first compound 0.02 µM,0.293
same,relative viability,NCI-H1793; first compound 0.06325 µM,0.137
same,relative viability,NCI-H1793; first compound 0.2 µM,0.122
same,relative viability,COR-L23; first compound 0.002 µM,1.14
same,relative viability,COR-L23; first compound 0.006325 µM,0.885
same,relative viability,COR-L23; first compound 0.02 µM,1
same,relative viability,COR-L23; first compound 0.06325 µM,0.0758
same,relative viability,COR-L23; first compound 0.2 µM,0.0617
same,relative viability,NCI-H2405; first compound 0.002 µM,0.925
same,relative viability,NCI-H2405; first compound 0.006325 µM,0.583
same,relative viability,NCI-H2405; first compound 0.02 µM,0.704
same,relative viability,NCI-H2405; first compound 0.06325 µM,0.188
same,relative viability,NCI-H2405; first compound 0.2 µM,0.143
same,relative viability,NCI-H1651; first compound 0.002 µM,0.967
same,relative viability,NCI-H1651; first compound 0.006325 µM,1.1
same,relative viability,NCI-H1651; first compound 0.02 µM,1.08
same,relative viability,NCI-H1651; first compound 0.06325 µM,0.18
same,relative viability,NCI-H1651; first compound 0.2 µM,0.144
same,relative viability,LXF-289; first compound 0.002 µM,0.951
same,relative viability,LXF-289; first compound 0.006325 µM,0.937
same,relative viability,LXF-289; first compound 0.02 µM,1.05
same,relative viability,LXF-289; first compound 0.06325 µM,0.851
same,relative viability,LXF-289; first compound 0.2 µM,0.302
same,relative viability,LCLC-97TM1; first compound 0.002 µM,0.3
same,relative viability,LCLC-97TM1; first compound 0.006325 µM,0.538
same,relative viability,LCLC-97TM1; first compound 0.02 µM,0.31
same,relative viability,LCLC-97TM1; first compound 0.06325 µM,0.411
same,relative viability,LCLC-97TM1; first compound 0.2 µM,0.338
same,relative viability,NCI-H1650; first compound 0.002 µM,1.31
same,relative viability,NCI-H1650; first compound 0.006325 µM,1.11
same,relative viability,NCI-H1650; first compound 0.02 µM,0.318
same,relative viability,NCI-H1650; first compound 0.06325 µM,0.159
same,relative viability,NCI-H1650; first compound 0.2 µM,0.144
same,relative viability,NCI-H2347; first compound 0.002 µM,0.794
same,relative viability,NCI-H2347; first compound 0.02 µM,0.483
same,relative viability,NCI-H2347; first compound 0.06325 µM,0.764
same,relative viability,NCI-H2347; first compound 0.2 µM,0.275
same,relative viability,LK-2; first compound 0.002 µM,0.826
same,relative viability,LK-2; first compound 0.006325 µM,0.936
same,relative viability,LK-2; first compound 0.02 µM,0.571
same,relative viability,LK-2; first compound 0.06325 µM,0.163
same,relative viability,LK-2; first compound 0.2 µM,0.159
same,relative viability,RERF-LC-KJ; first compound 0.002 µM,0.987
same,relative viability,RERF-LC-KJ; first compound 0.006325 µM,1.11
same,relative viability,RERF-LC-KJ; first compound 0.02 µM,1.07
same,relative viability,RERF-LC-KJ; first compound 0.06325 µM,0.221
same,relative viability,RERF-LC-KJ; first compound 0.2 µM,0.22
same,relative viability,LOU-NH91; first compound 0.002 µM,0.692
same,relative viability,LOU-NH91; first compound 0.006325 µM,0.707
same,relative viability,LOU-NH91; first compound 0.02 µM,0.49
same,relative viability,LOU-NH91; first compound 0.06325 µM,0.257
same,relative viability,LOU-NH91; first compound 0.2 µM,0.256
same,relative viability,NCI-H647; first compound 0.002 µM,1.23
same,relative viability,NCI-H647; first compound 0.006325 µM,1.06
same,relative viability,NCI-H647; first compound 0.02 µM,1.18
same,relative viability,NCI-H647; first compound 0.06325 µM,0.0943
same,relative viability,NCI-H647; first compound 0.2 µM,0.0973
same,relative viability,NCI-H23; first compound 0.002 µM,1.08
same,relative viability,NCI-H23; first compound 0.006325 µM,0.793
same,relative viability,NCI-H23; first compound 0.02 µM,0.625
same,relative viability,NCI-H23; first compound 0.06325 µM,0.142
same,relative viability,NCI-H23; first compound 0.2 µM,0.13
same,relative viability,A-427; first compound 0.002 µM,1.01
same,relative viability,A-427; first compound 0.006325 µM,0.913
same,relative viability,A-427; first compound 0.02 µM,0.497
same,relative viability,A-427; first compound 0.06325 µM,0.99
same,relative viability,A-427; first compound 0.2 µM,1.03
same,relative viability,201T; first compound 0.002 µM,1.17
same,relative viability,201T; first compound 0.006325 µM,1.18
same,relative viability,201T; first compound 0.02 µM,1.13
same,relative viability,201T; first compound 0.06325 µM,1.15
same,relative viability,201T; first compound 0.2 µM,1.18
